Assay results published in patent US20250333424A1, “ANTIVIRAL COMPOUNDS” (Gilead Sciences, Inc., priority 2024, published 2025).

These compounds were tested on monocytic THP1 cells infected with HIV VSV-G pseudotyped GFP-NEF reporter virus (assay: cells). Conditions: Human immunodeficiency virus 1, THP-1, 24 h.
Assay type: cell-based

Row | Compound | EC50 [nM]
1 | Cc1cc(/C=C/C#N)cc(C)c1Oc1nc(NC23CC(C#N)(C2)C3(F)F)nc2nc3n(c12)CCCO3 [Compound 188, (E)-3-((4-(4-(2-cyanovinyl)-2,6-dimethylphenoxy)-7,8-dihydro-6H-[1,3]oxazino[2,3-f]purin-2-yl)amino)-2,2-difluorobicyclo[1.1.1]pentane-1-carbonitrile] | 70.4
2 | Cc1cc(/C=C/C#N)cc(C)c1Oc1nc(NC23CC(C#N)(C2)C3)nc2nc3n(c12)CC(F)(F)CO3 [Compound 189, (E)-3-((4-(4-(2-cyanovinyl)-2,6-dimethylphenoxy)-7,7-difluoro-7,8-dihydro-6H-[1,3]oxazino[2,3-f]purin-2-yl)amino)bicyclo[1.1.1]pentane-1-carbonitrile] | 109
3 | Cc1cc(/C=C/C#N)cc(C)c1Oc1nc(NC23CC(C#N)(C2)C3)nc2[nH]c(=O)n(C(F)F)c12 [Compound 190, (E)-3-((6-(4-(2-cyanovinyl)-2,6-dimethylphenoxy)-7-(difluoromethyl)-8-oxo-8,9-dihydro-7H-purin-2-yl)amino)bicyclo[1.1.1]pentane-1-carbonitrile] | 329
4 | Cc1cc(/C=C/C#N)cc(C)c1Oc1nc(NC23CC(C#N)(C2)C3)nc2nc3n(c12)CCOC3 [Compound 195, (E)-3-((4-(4-(2-cyanovinyl)-2,6-dimethylphenoxy)-6,7-dihydro-9H-[1,4]oxazino[3,4-f]purin-2-yl)amino)bicyclo[1.1.1]pentane-1-carbonitrile] | 37
5 | Cc1cc(/C=C/C#N)cc(C)c1Oc1nc(NC23CC(C#N)(C2)C3)nc2nc3n(c12)CCC3 [Compound 196, (E)-3-((4-(4-(2-cyanovinyl)-2,6-dimethylphenoxy)-7,8-dihydro-6H-pyrrolo[2,1-f]purin-2-yl)amino)bicyclo[1.1.1]pentane-1-carbonitrile] | 24.6
6 | Cc1cc(/C=C/C#N)cc(C)c1Oc1nc(NC23CC(C#N)(C2)C3)nc2c1C1(C)OCC(C)(C)CN1C2=O (stereo not shown) [Compound 197, (E)-3-((4-(4-(2-cyanovinyl)-2,6-dimethylphenoxy)-4b,7,7-trimethyl-10-oxo-4b,7,8,10-tetrahydro-6H-pyrimido[5′,4′:3,4]pyrrolo[2,1-b][1,3]oxazin-2-yl)amino)bicyclo[1.1.1]pentane-1-carbonitrile] | 97.3
7 | Cc1cc(/C=C/C#N)cc(C)c1Oc1nc(NC23CC(C#N)(C2)C3)nc2c1C1(C)O[C@@H](CO)CN1C2=O (stereo partly drawn) [Compound 264, 3-(((6R)-4-(4-((E)-2-cyanovinyl)-2,6-dimethylphenoxy)-6-(hydroxymethyl)-4b-methyl-9-oxo-4b,6,7,9-tetrahydrooxazolo[3′,2′:1,5]pyrrolo[3,4-d]pyrimidin-2-yl)amino)bicyclo[1.1.1]pentane-1-carbonitrile] | 118
8 | Cc1cc(/C=C/C#N)cc(C)c1Oc1nc(NC23CC(C#N)(C2)C3)nc2c1C(O)(CF)NC2=O (stereo not shown) [Compound 265, (E)-3-((4-(4-(2-cyanovinyl)-2,6-dimethylphenoxy)-5-(fluoromethyl)-5-hydroxy-7-oxo-6,7-dihydro-5H-pyrrolo[3,4-d]pyrimidin-2-yl)amino)bicyclo[1.1.1]pentane-1-carbonitrile] | 86.4
9 | Cc1cc(/C=C/C#N)cc(C)c1Oc1nc(NC23CC(C#N)(C2)C3)nc2c1/C(=C/F)NC2=O [Compound 266, 3-(((Z)-4-(4-((E)-2-cyanovinyl)-2,6-dimethylphenoxy)-5-(fluoromethylene)-7-oxo-6,7-dihydro-5H-pyrrolo[3,4-d]pyrimidin-2-yl)amino)bicyclo[1.1.1]pentane-1-carbonitrile] | 61
10 | Cc1cc(/C=C/C#N)cc(C)c1Oc1nc(NC23CC(C#N)(C2)C3)nc2c1C(O)(CF)N(C1CC1)C2=O (stereo not shown) [Compound 267, (E)-3-((4-(4-(2-cyanovinyl)-2,6-dimethylphenoxy)-6-cyclopropyl-5-(fluoromethyl)-5-hydroxy-7-oxo-6,7-dihydro-5H-pyrrolo[3,4-d]pyrimidin-2-yl)amino)bicyclo[1.1.1]pentane-1-carbonitrile] | 80.3
11 | Cc1cc(/C=C/C#N)cc(C)c1Oc1nc(NC23CC(C#N)(C2)C3)nc2c1/C(=C/F)N(C1CC1)C2=O [Compound 268, 3-(((Z)-4-(4-((E)-2-cyanovinyl)-2,6-dimethylphenoxy)-6-cyclopropyl-5-(fluoromethylene)-7-oxo-6,7-dihydro-5H-pyrrolo[3,4-d]pyrimidin-2-yl)amino)bicyclo[1.1.1]pentane-1-carbonitrile] | 173
12 | C=C1c2c(Oc3c(C)cc(/C=C/C#N)cc3C)nc(NC34CC(C#N)(C3)C4)nc2C(=O)N1[C@H]1CC[C@@H](O)C1 [Compound 269, 3-((4-(4-((E)-2-cyanovinyl)-2,6-dimethylphenoxy)-6-((1S,3R)-3-hydroxycyclopentyl)-5-methylene-7-oxo-6,7-dihydro-5H-pyrrolo[3,4-d]pyrimidin-2-yl)amino)bicyclo[1.1.1]pentane-1-carbonitrile] | 57.3
13 | C=C1c2c(Oc3c(C)cc(/C=C/C#N)cc3C)nc(NC34CC(C#N)(C3)C4)nc2C(=O)N1CCCCO [Compound 270, (E)-3-((4-(4-(2-cyanovinyl)-2,6-dimethylphenoxy)-6-(4-hydroxybutyl)-5-methylene-7-oxo-6,7-dihydro-5H-pyrrolo[3,4-d]pyrimidin-2-yl)amino)bicyclo[1.1.1]pentane-1-carbonitrile] | 19
14 | Cc1cc(/C=C/C#N)cc(C)c1Oc1nc(NC23CC(C#N)(C2)C3)nc2c1C1(C)OCC[C@H](C)N1C2=O (stereo partly drawn) [Compound 271, 3-(((8S)-4-(4-((E)-2-cyanovinyl)-2,6-dimethylphenoxy)-4b,8-dimethyl-10-oxo-4b,7,8,10-tetrahydro-6H-pyrimido[5′,4′:3,4]pyrrolo[2,1-b][1,3]oxazin-2-yl)amino)bicyclo[11.1.1]pentane-1-carbonitrile] | 52
15 | Cc1cc(/C=C/C#N)cc(C)c1Oc1nc(NC23CC(C#N)(C2)C3)nc2c1C1(C)OCC[C@@H](C)N1C2=O (stereo partly drawn) [Compound 272, 3-(((8R)-4-(4-((E)-2-cyanovinyl)-2,6-dimethylphenoxy)-4b,8-dimethyl-10-oxo-4b,7,8,10-tetrahydro-6H-pyrimido[5′,4′:3,4]pyrrolo[2,1-b][1,3]oxazin-2-yl)amino)bicyclo[1.1.1]pentane-1-carbonitrile] | 68.3
16 | Cc1cc(/C=C/C#N)cc(C)c1Oc1nc(NC23CC(C#N)(C2)C3)nc2c1C1(C)OCCN1C2=O (stereo not shown) [Compound 273, (E)-3-((4-(4-(2-cyanovinyl)-2,6-dimethylphenoxy)-4b-methyl-9-oxo-4b,6,7,9-tetrahydrooxazolo[3′,2′:1,5]pyrrolo[3,4-d]pyrimidin-2-yl)amino)bicyclo[1.1.1]pentane-1-carbonitrile] | 16
17 | Cc1cc(/C=C/C#N)cc(C)c1Oc1nc(NC23CC(C#N)(C2)C3)nc2c1nc1n2CC2(CC2)CO1 [Compound 274, (E)-3-((4′-(4-(2-cyanovinyl)-2,6-dimethylphenoxy)-7′H,9′H-spiro[cyclopropane-1,8′-[1,3]oxazino[3,2-e]purin]-2′-yl)amino)bicyclo[1.1.1]pentane-1-carbonitrile] | 111
18 | Cc1cc(/C=C/C#N)cc(C)c1C(=O)c1nc(NC23CC(C#N)(C2)C3)nc2nn(C)cc12 [Compound 275, (E)-3-((4-(4-(2-cyanovinyl)-2,6-dimethylbenzoyl)-2-methyl-2H-pyrazolo[3,4-d]pyrimidin-6-yl)amino)bicyclo[1.1.1]pentane-1-carbonitrile] | 113
19 | Cc1cc(/C=C/C#N)cc(C)c1C(O)c1nc(NC23CC(C#N)(C2)C3)nc2nn(C)cc12 (stereo not shown) [Compound 276, (E)-3-((4-((4-(2-cyanovinyl)-2,6-dimethylphenyl)(hydroxy)methyl)-2-methyl-2H-pyrazolo[3,4-d]pyrimidin-6-yl)amino)bicyclo[1.1.1]pentane-1-carbonitrile] | 194
20 | Cc1cc(/C=C/C#N)cc(C)c1Cc1nc(NC23CC(C#N)(C2)C3)nc2nn(C)cc12 [Compound 277, (E)-3-((4-(4-(2-cyanovinyl)-2,6-dimethylbenzyl)-2-methyl-2H-pyrazolo[3,4-d]pyrimidin-6-yl)amino)bicyclo[1.1.1]pentane-1-carbonitrile] | 49.9
21 | Cc1cc(/C=C/C#N)cc(C)c1Oc1nc(NC23CC(C#N)(C2)C3)nc2c1[C@@H]1OCCCN1C2=O [Compound 279, (S,E)-3-((4-(4-(2-cyanovinyl)-2,6-dimethylphenoxy)-10-oxo-4b,7,8,10-tetrahydro-6H-pyrimido[5′,4′:3,4]pyrrolo[2,1-b][1,3]oxazin-2-yl)amino)bicyclo[1.1.1]pentane-1-carbonitrile] | 57.2
22 | Cc1cc(/C=C/C#N)cc(C)c1Oc1nc(NC23CC(C#N)(C2)C3)nc2c1[C@H]1OCCCN1C2=O [Compound 280, (R,E)-3-((4-(4-(2-cyanovinyl)-2,6-dimethylphenoxy)-10-oxo-4b,7,8,10-tetrahydro-6H-pyrimido[5′,4′:3,4]pyrrolo[2,1-b][1,3]oxazin-2-yl)amino)bicyclo[1.1.1]pentane-1-carbonitrile] | 33.7
23 | Cc1cc(/C=C/C#N)cc(C)c1Oc1nc(NC23CC(C#N)(C2)C3)nc2c1C(O)NC2=O (stereo not shown) [Compound 286, (E)-3-((4-(4-(2-cyanovinyl)-2,6-dimethylphenoxy)-5-hydroxy-7-oxo-6,7-dihydro-5H-pyrrolo[3,4-d]pyrimidin-2-yl)amino)bicyclo[1.1.1]pentane-1-carbonitrile] | 72.4
24 | COC1NC(=O)c2nc(NC34CC(C#N)(C3)C4)nc(Oc3c(C)cc(/C=C/C#N)cc3C)c21 (stereo not shown) [Compound 287, (E)-3-((4-(4-(2-cyanovinyl)-2,6-dimethylphenoxy)-5-methoxy-7-oxo-6,7-dihydro-5H-pyrrolo[3,4-d]pyrimidin-2-yl)amino)bicyclo[1.1.1]pentane-1-carbonitrile] | 26.2
25 | CCOC1NC(=O)c2nc(NC34CC(C#N)(C3)C4)nc(Oc3c(C)cc(/C=C/C#N)cc3C)c21 (stereo not shown) [Compound 288, (E)-3-((4-(4-(2-cyanovinyl)-2,6-dimethylphenoxy)-5-ethoxy-7-oxo-6,7-dihydro-5H-pyrrolo[3,4-d]pyrimidin-2-yl)amino)bicyclo[1.1.1]pentane-1-carbonitrile] | 29.8
